Earlier results in US10143689B2, “SN-38 loaded iron crosslinked micelle and methods thereof” (Intezyne Technologies, Inc., priority 2017, dated 2018).

Columns and labels:
various cancer cells = settings: in vitro

CCc1c2c(nc3ccc(O)cc13)-c1cc3c(c(=O)n1C2)COC(=O)[C@]3(O)CC [SN-38, 7-ethyl-10-hydroxy-CPT]
cytotoxic activity, potency relative to CPT-11 (various cancer cells): up to 1,000 fold
solubility in aqueous solutions: exceedingly insoluble
